Test [1] concerns muscle-invasive bladder cancer. Briefly: Pathologic response to neoadjuvant cisplatin-based chemotherapy, Philadelphia (FCCC) cohort. The format is in vivo, human. The text has this: (§1) To validate the ability of the NERDetect classifier to discriminate between ERCC2 mutant and WT bladder tumors, we analyzed WES data from three additional independent bladder cancer cohorts^53,0,31. The DFCI/MSK (n=50) and FCCC (n=48) cohorts are comprised of muscle-invasive bladder cancer patients who received neoadjuvant cisplatin-based chemotherapy followed by radical cystectomy, while the BGI cohort (n=98) included patients with MIBC or non-muscle-invasive bladder cancer.
(§2) Patients in the DFCI/MSK and FCCC cohorts were treated with cisplatin-based chemotherapy followed by radical cystectomy, and cisplatin responders were defined as those that had no residual invasive disease on pathologic examination of the cystectomy specimen.
(§3) Patients in the DFCI/MSK and Philadelphia cohorts were treated with cisplatin-based chemotherapy followed by radical cystectomy, and cisplatin responders were defined as patients with no residual invasive disease on pathologic examination of the cystectomy specimen.

Test [2] concerns SC14 (SW1710 derivative with ERCC2 P463L mutation). Nature of the test: In vitro drug sensitivity assay. The format is cell-based. Conditions: ERCC2-mutant SC14 line compared with SW1710. The text has this:
(§4) Bladder cancer cell lines were purchased from ATCC. The KE1 bladder cancer cell line is a derivative of KU19-19 in which an ERCC2 T484 mutation has been introduced by CRISPR/Cas9 gene editing as previously described (6). The MDA-MB-468 breast cancer cell line and its ERCC4-complemented derivative have been previously described (35). Small interfering RNAs (siRNAs) targeting specific NER genes as well as a non-targeting siRNA (siNTC) were purchased from Integrated DNA Technologies Inc. (Coralville, IA, USA; see Table 9 for sequences). Cells were seeded in 6-well plates and grown to 50% confluency. A transfection mixture containing siRNA diluted to a final concentration of 30 nM in Opti-MEM media containing Lipofectamine 3000 (Life Technologies; Carlsbad, CA) was then added to cells. After 48 hours, cells were trypsinized and re-aliquoted to separate wells and transfected with 15 nM siRNA for 24 hours immediately prior to viability assays performed as described below. […]
(§5) Cells were seeded in either 96-well (5,000 cells/well) or 24-well (20,000 cells/well) plates. […] Plates were scanned using a luminescence microplate reader (BioTek). […]

The subject of test [3] is muscle-invasive bladder cancer. Nature of the test: Pathologic response to neoadjuvant cisplatin-based chemotherapy, DFCI/MSKCC cohort. Conditions: for complete response rate: all cases. The format is in vivo, human.
Source text: as §1, §2, §3

The subject of test [4] is MDA-MB-468 breast cancer cell line (NER deficient, ERCC4 silenced). Conditions: MDA-MB-468 with re-expression of WT ERCC4; previous work; cited from earlier work.
The subject of test [5] is KE1 bladder cancer cell line (ERCC2-mutated derivative of KU19-19, NER-deficient). Nature of the test: In vitro drug sensitivity assay (CellTiter-Glo). The format is cell-based. The settings on record: NER-deficient KE1, compared with isogenic KU19-19; 48 to 72 hours.
Source text: as §4, §5

Test [6] concerns muscle-invasive and metastatic urothelial cancer. Conditions: cisplatin-based chemotherapy, first-line; cited from earlier work.
Test [7] concerns cisplatin-resistant MDA-MB-468 cell line. Nature of the test: In vitro drug sensitivity assay in cisplatin-resistant derivative. The test is classed as cell-based. The settings on record: cisplatin-resistant vs parental MDA-MB-468. As for the experimental part: Cells were seeded in either 96-well (5,000 cells/well) or 24-well (20,000 cells/well) plates. The following day, irofulven and cisplatin stock solutions were serially diluted in media and added to cells. After 48 to 72 hours, media was removed and CellTiter-Glo® reagent (Promega; Madison, WI) was added. Plates were scanned using a luminescence microplate reader (BioTek). Survival at each drug concentration was plotted as a percentage of survival in drug-free media with error bars representing the standard deviation of at least three experiments.
Platinum-based chemotherapy is a first-line treatment for numerous solid malignancies including bladder cancer, but platinum resistance frequently occurs and represents a challenging clinical problem. Although a variety of platinum resistance mechanisms have been characterized, restoration or upregulation of DNA repair is a common mechanism of resistance, particularly in HR-deficient breast and ovarian tumors^33. Mechanisms of platinum resistance in NER deficient tumors have not been characterized, and we wished to determine if acquired resistance to cisplatin would confer cross-resistance to irofulven through restoration of NER. To test this, we derived cisplatin resistance in the NER-deficient MDA-MB-468 cell line by gradual exposure to escalating doses of cisplatin (Methods).

Molecules are shown by their SMILES.

With `N.N.[Cl][Pt][Cl]` [cisplatin], the complete response rate in test [1] (ERCC2mut score<0.70 (14 of 42)) is 33%; in test [1] (ERCC2mut signature score≥0.70 (all six)), 100%; in test [1] (NERDetect score<0.75 (14 of 41)), 34%; in test [1] (NERDetect score≥0.75 (six of seven)) it was 86%; in test [3] (ERCC2mut score<0.70 (10 of 33)) it was 30%; in test [3] (ERCC2mut signature score≥0.70 (15 of 17)) it was 88%. For the same compound, the complete response rate is listed as 87% in test [3] (NERDetect score ≥0.75 (14 of 16)) and 32% in test [3] (NERDetect score<0.75 (11 of 34)). Also, in test [2], the drug sensitivity entry is reported as “significantly increased sensitivity”. Besides, the cisplatin responders in test [3] (WT ERCC2 patients, ERCC2mut score<0.70 (9 of 32)) is recorded as 28%; in test [3] (WT ERCC2 patients, ERCC2mut score≥0.70 (seven of nine)), 78%; in test [3] (WT ERCC2 patients, NERDetect score<0.75 (10 of 31)), 32%; in test [3] (WT ERCC2 patients, NERDetect score≥0.75 (six of eight)), 75%; in test [3] (all 41 WT ERCC2 cases (16)), 39%. The “cisplatin sensitivity after re-expression of ERCC4” value in test [4] was “could be rescued”. Also, the “drug sensitivity (survival as percentage of drug-free media)” value in test [5] is reported as “increased sensitivity”. The “patients with an initial response” value in test [6] is reported as 60-70%. In addition, in test [7], the “cisplatin IC50, cisplatin resistant cell line relative to parental” value is listed as ~ 3.5 fold.

(Values after US12691143B2, “Method for treating cancer” (priority 2020, dated 2026).)
